Target: OGG1 (Homo sapiens (Human), UniProt O15527)
Experiment: OGG1 inhibitor assay with fluorogenic OGR1 probe (base excision, initial rates)
Assay type: biochemical
Conditions: for Enzyme activity, % of control at 200 nM / Enzyme activity, % of control at 2 μM / Enzyme activity, % of control at 20 μM: ratio of initial rate slope (first 12 min) to no-compound control; for Enzyme activity, % of control at 2 μM: 2 μM compound; for Enzyme activity, % of control at 20 μM: 20 μM compound; for IC50: initial rates method
Experimental: Methods: Synthesized compounds and hOGG1 (100 nM) were incubated in NEBuffer 4 (1×) with BSA (1×) at 37° C. (15 min) in 100 μL reaction volumes in a black 96-well plate. (See, e.g., Edwards, S. K., et al., ChemBioChem 2015, 16, 1637-1646, the disclosure of which is incorporated herein by reference.) After that, OGR1 (1.2 μM) was added to the reaction mixture. Fluorescence at 460 nm was measured on a Thermo Fluoroskan Ascent FL fluorescence plate reader (λex=355 nm). The slope of initial rate (12 min) was calculated, and % of control was used for inhibition activity. BSA, hOGG1 and NEBuffer 4 were purchased from New England Biolabs and used. UltraPure Distilled Water (Invitrogen) was purchased and used for the assay.

Sequence of OGG1 (O15527 whole entry): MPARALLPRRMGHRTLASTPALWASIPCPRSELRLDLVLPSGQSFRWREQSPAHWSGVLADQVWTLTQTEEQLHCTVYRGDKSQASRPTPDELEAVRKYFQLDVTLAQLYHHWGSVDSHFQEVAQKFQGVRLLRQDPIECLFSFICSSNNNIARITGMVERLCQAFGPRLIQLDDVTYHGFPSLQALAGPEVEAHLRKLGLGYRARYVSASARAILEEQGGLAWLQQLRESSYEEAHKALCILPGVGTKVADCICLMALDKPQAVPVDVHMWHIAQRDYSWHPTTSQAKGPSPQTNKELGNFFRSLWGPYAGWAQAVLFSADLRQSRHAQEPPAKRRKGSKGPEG

Structure (SMILES)	Enzyme activity, % of control at 200 nM (200 nM compound)	Enzyme activity, % of control at 2 μM	Enzyme activity, % of control at 20 μM	IC50 [nM]	inhibition of activity at 200 nM (200 nM compound)
CCNc1ccc(S(=O)(=O)Nc2ccc3c(c2)N(C(=O)C2CC2)CCC3)cc1 [Compound 25]	≥100 % of control	58 % of control	10 % of control		
CCCOc1ccc(S(=O)(=O)Nc2ccc3c(c2)N(C(=O)C2CC2)CCC3)cc1 [Compound 24]	95 % of control	19 % of control			
O=C(C1CC1)N1CCCc2ccc(NS(=O)(=O)c3ccc(-n4cccn4)cc3)cc21 [Compound 33]	81 % of control	45 ± 1.3 % of control	14 ± 3.2 % of control		
NNC(=O)c1sc2cccc(Cl)c2c1Cl [Compound O8, reference compound]		69 % of control	45 % of control		
CCOc1ccc(S(=O)(=O)Nc2ccc3c(c2)N(C(=O)NC2CC2)CCC3)cc1 [Compound 10]		87 % of control	77 % of control		
CCOc1ccc(S(=O)(=O)Nc2ccc3c(c2)N(C(=O)C2CCC2)CCC3)cc1 [Compound 8]		69 % of control	33 % of control		
CCOc1ccc(NC(=O)Nc2ccc3c(c2)N(C(=O)C2CC2)CCC3)cc1 [Compound 21]		≥100 % of control	≥100 % of control		
CCOc1ccc(S(=O)(=O)Nc2ccc3c(c2)N(C(=O)C(C)(C)C)CCC3)cc1 [Compound 6]			≥100 % of control		
CCOc1ccc(S(=O)(=O)Nc2ccc3c(c2)N(C(=O)C2CC2)CCO3)cc1 [Compound 15]		90 % of control	41 % of control		
CCOc1ccc(S(=O)(=O)Nc2ccc3c(c2)CN(C(=O)C2CC2)CC3)cc1 [Compound 17]		94 % of control	88 % of control		
CCOc1ccc(S(=O)(=O)Nc2ccc3c(c2)N(S(=O)(=O)CC)CCC3)cc1 [Compound 9]		96 % of control	92 % of control		
CN(C)c1cccc(-c2ccc(S(=O)(=O)Nc3ccc4c(c3)N(C(=O)C3CC3)CCC4)cc2)c1 [Compound 38]	70 % of control				
CCC(=O)N1CCCc2ccc(NS(=O)(=O)CC)cc21 [Compound 22]		94 % of control	74 % of control		
O=C(C1CC1)N1CCCc2ccc(NS(=O)(=O)c3ccc(Oc4ccccc4)cc3)cc21 [Compound 28]	≥100 % of control	41 ± 2.0 % of control	8.3 % of control	1500	
CCOc1ccc(S(=O)(=O)Nc2cc3c(cc2OC)CCCN3C(=O)C2CC2)cc1 [Compound 16]		≥100 % of control	93 % of control		
CCOc1ccc(S(=O)(=O)Nc2ccc3c(c2)N(C(=O)C2CC2)CCC3)cc1C [Compound 27]		71 % of control	22 % of control		
O=C(C1CC1)N1CCCc2ccc(NS(=O)(=O)c3ccc(-c4cccnc4)cc3)cc21 [Compound 34]	61 ± 1.3 % of control	23 ± 1.5 % of control	2.0 % of control	270	ca. 40%
CCOc1ccc(S(=O)(=O)Nc2ccc3c(c2)N(CC2CC2)CCC3)cc1 [Compound 11]		≥100 % of control	83 % of control		
CCOc1ccc(S(=O)(=O)Nc2ccc3c(c2)N(C(=O)C2CC2)CCC3)cc1 [Compound 7]	82 ± 12 % of control	41 ± 1.7 % of control	5.8 ± 1.9 % of control	1100	
CCOc1ccc(S(=O)(=O)Nc2ccc3c(c2)N(C(=O)C2CC2)CCCC3)cc1 [Compound 14]		76 % of control	35 % of control		

Structure (SMILES)	Enzyme activity, % of control at 200 nM (200 nM compound)	Enzyme activity, % of control at 2 μM	Enzyme activity, % of control at 20 μM	IC50 [nM]	inhibition of activity at 200 nM (200 nM compound)
CCOc1ccc(S(=O)(=O)Nc2ccc3c(c2)N(C(=O)CC)CCC3)cc1 [Compound 2]		51 ± 1.4 % of control	3.7 ± 0.83 % of control		
O=C(C1CC1)N1CCCc2ccc(NS(=O)(=O)c3ccc4oc5ccccc5c4c3)cc21 [Compound 29]		82 % of control	71 % of control		
CCOc1ccc(S(=O)(=O)Nc2ccc3c(c2)N(C(=O)CC)CC3)cc1 [Compound 13]		95 % of control	≥100 % of control		
CCOc1ccc(S(=O)(=O)Nc2ccc3c(c2)N(C(=O)C(C)C)CCC3)cc1 [Compound 5]		96 % of control	52 % of control		
CCOc1ccc(S(=O)(=O)N(C)c2ccc3c(c2)N(C(=O)C2CC2)CCC3)cc1 [Compound 19]		84 % of control	79 % of control		
COc1cccc(-c2ccc(S(=O)(=O)Nc3ccc4c(c3)N(C(=O)C3CC3)CCC4)cc2)c1 [Compound 37]	67 % of control	13 % of control			
COc1ccc(-c2ccc(S(=O)(=O)Nc3ccc4c(c3)N(C(=O)C3CC3)CCC4)cc2)cc1 [Compound 36]	79 % of control	31 % of control			
CNC(=O)c1cccc(-c2ccc(S(=O)(=O)Nc3ccc4c(c3)N(C(=O)C3CC3)CCC4)cc2)c1 [Compound 40]	48 % of control				
O=C(C1CC1)N1CCCc2ccc(NS(=O)(=O)c3ccc(C4CCCCC4)cc3)cc21 [Compound 31]	87 % of control	25 % of control			
CCOc1ccc(S(=O)(=O)Nc2cccc(NC(C)=O)c2)cc1 [Compound 12]		96 % of control	70 % of control		
O=C(C1CC1)N1CCCc2ccc(NS(=O)(=O)c3ccc(-c4ccccc4)cc3)cc21 [Compound 30]	90 ± 6.2 % of control	29 ± 7.0 % of control			
CCCc1ccc(S(=O)(=O)Nc2ccc3c(c2)N(C(=O)C2CC2)CCC3)cc1 [Compound 23]	74 % of control	35 % of control	14 % of control		
O=C(C1CC1)N1CCCc2ccc(NS(=O)(=O)c3ccc(N4CCOCC4)cc3)cc21 [Compound 32]	84 % of control	76 % of control			
CCOc1ccc(S(=O)(=O)Nc2ccc3c(c2)N(C(=O)CCOC)CCC3)cc1 [Compound 4]		93 % of control	51 % of control		
CCOc1ccc(S(=O)(=O)N(O)c2ccc3c(c2)N(C(=O)C2CC2)CCC3)cc1 [Compound 18]	≥100 % of control	79 % of control	21 % of control		
CSc1ccc(S(=O)(=O)Nc2ccc3c(c2)N(C(=O)C2CC2)CCC3)cc1 [Compound 26]	75 % of control	53 % of control	3.6 % of control		
O=C(C1CC1)N1CCCc2ccc(NS(=O)(=O)c3ccc(-c4ccc(C(F)(F)F)cc4)cc3)cc21 [Compound 35]	97 % of control	72 % of control			
CCOc1ccc(C(=O)Nc2ccc3c(c2)N(C(=O)C2CC2)CCC3)cc1 [Compound 20]		≥100 % of control	≥100 % of control		
CCOc1ccc(S(=O)(=O)Nc2ccc3c(c2)N(C(=O)Cc2ccccc2)CCC3)cc1 [Compound 3]		≥100 % of control	79 % of control		

— patent publication US11440887B2, “Substituted 1,2,3,4-tetrahydroquinolines as inhibitors of repair enzyme 8-oxoguanine deoxyribonucleic acid glycosylase activity” (The Board of Trustees of the Leland Stanford Junior …, priority 2017, dated 2022)
